Measured values reported in US10913781B2, “Pepducin design and use” (Tufts Medical Center, Inc., priority 2011, dated 2021).
Like-named read-outs stand apart in the source and are kept apart here. Peptide text beside a SMILES is read from it. * marks the point of attachment. Palmitoyl = CCCCCCCCCCCCCCCC(=O)*

Columns and labels:
PAR1 [1] = target: T1, PAR1 (Homo sapiens, UniProt P25116); assay: ERK1/2 phosphorylation in A549 cells (thrombin or […]), Western blot; format: cell-based; parameters: endogenous in cells; host or cells: A549, HOP62, H1299, H522, H226, HOP92 lung carcinoma lines
T1 sequence (P25116 22-425): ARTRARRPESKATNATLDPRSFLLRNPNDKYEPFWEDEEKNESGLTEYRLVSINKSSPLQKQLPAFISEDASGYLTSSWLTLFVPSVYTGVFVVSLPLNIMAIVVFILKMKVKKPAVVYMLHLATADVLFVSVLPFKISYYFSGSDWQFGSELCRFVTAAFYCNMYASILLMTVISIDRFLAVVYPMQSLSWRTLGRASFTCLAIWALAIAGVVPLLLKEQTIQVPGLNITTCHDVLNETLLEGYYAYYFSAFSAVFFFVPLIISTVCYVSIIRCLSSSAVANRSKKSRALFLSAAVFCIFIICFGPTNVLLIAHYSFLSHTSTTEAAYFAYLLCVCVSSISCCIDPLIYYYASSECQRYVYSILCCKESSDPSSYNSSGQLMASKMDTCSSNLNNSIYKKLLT
Procedure: FIG. 9 illustrates that differential inhibition of PAR1-ERK activation by i3- and i1-derived PAR1 pepducins. (A-C): Western blots of lysates from A549 cells untreated, or treated with thrombin, SLIGKV (SEQ ID NO:29), or AYPGKF (SEQ ID NO:5). Indicated samples were pretreated with various concentrations (0.1 to 3 μmol/L) of P1pal-7, P1pal-10S, or P1pal-i1-11 before stimulation and immunoblotted with anti-phospho-ERK. (D-F): Quantification of the Western blots in (A-C) were conducted by densitometry and results are expressed relative to maximum (fold max) phosphorylation of pERK.
(B): A549 cells stimulated with 10 μM […] over 2 h. A549 cells pretreated with 0.1 μM P1pal-7 and stimulated with 10 μM […] (SEQ ID NO:30) for 5 min. Total ERK was used as a loading control.
Last, there has been a great deal of interest in understanding the mechanism of PAR1-mediated activation of MAP kinase cascade and PAR1-dependent cellular growth and differentiation, proliferation and gene transcription. […] The effects of i1 versus i3 PAR1 pepducins on ERK1/2 activation were examined in the A549 lung adenocarcinoma cell line. […] Inhibition experiments with a range of pepducin concentrations (0.1-3 μM) were conducted. […] The […] (SEQ ID NO:30) peptide gave a rapid and transient ERK1/2 phosphorylation signal that peaked at 5-15 min after stimulation. […] To determine the specificity of the PAR1 pepducin inhibitors, their effects on the closely related PAR2 and PAR4 receptors were also tested.

A549 xenografts = format: in vivo, mouse; details: mouse, in vivo
Procedure: (§1) FIG. 13 illustrates that monotherapy with PAR1-i3 pepducins inhibits tumor progression of A549 xenografts. (A) and (B): A549 mice treated with vehicle, P1pal-7, P1pal-i1-11, P1pal-10S, X1/2-i1, X1/2-i3, or Avastin. Each time point represents the mean±SE. (C): Final tumor volume at the completion of the experiment was calculated as a percentage of untreated vehicle control. (D): Serum-starved A549 adenocarcinoma cells were pretreated with P1pal-7, P1pal-10S, P1pal-i1-11, vehicle, or PD98059 and stimulated with thrombin. VEGF production was assessed by enzyme-linked immunosorbent assay. Data are expressed as mean±SD (*P<0.05, **P<0.01).
PAR1 expression level is correlated with reduced survival of patients with NSCLC. To define the relative importance of PAR1 in lung tumor progression, in vivo mouse models were used. […] An A549 lung adenocarcinoma xenograft model in nude mice was used to evaluate monotherapy with P1pal-7, P1pal-10S, P1pal-i1-11, or the VEGF antagonist Avastin.

[2] = tested on: A549, HOP62, and HOP92 lung carcinoma cell lines; assay: Cytotoxicity/cell viability of lung carcinoma cells (MIT assay); format: cell-based, human; details: 3-day period
[3] = Pharmacokinetics of PAR1 pepducins in CF-1 mice, plasma LC/MS/MS; format: in vivo, mouse; details: for Cmax: read-out: Peak plasma level
Procedure: FIG. 14 illustrates pharmacokinetics of PAR1 pepducins. (A): CF-1 mice were injected subcutaneously with P1pal-7 (3 mg/kg, open circles), P1pal-7 (10 mg/kg, closed circles), P1pal-10S (10 mg/kg, gray circles), or P1pal-i1-11 (10 mg/kg, open squares) in 20% dimethyl sulfoxide and blood was collected at indicated time points (n=3). Pepducin levels in plasma were quantified with LC/MS/MS. (B): Daily (D1 to D6) plasma levels of P1pal-7 after subcutaneous injection of 10 mg/kg P1pal-7 were measured at 1 hour (open circles) and 24 hours (open squares).
Pharmacokinetics of plasma levels of P1pal-7, P1pal-10S, and P1pal-i1-11 at 30 minutes, and at 1, 2, 4, 6, 8, and 16 hours was measured by LC/MS/MS to determine steady-state pepducin drug levels and the rate of elimination from mice. Subcutaneous injections of P1pal-7 (3 mg/kg or 10 mg/kg) into wild-type CF-1 mice (25 to 30 g) was followed by blood collection at various time points from the vena cava. […] Residual P1pal-7 levels were 10 nmol/L at the 16-hour time point. After the 4-hour plateau, the elimination rate was linear from 4 to 16 hours. The peak plasma level of 3 mg/kg P1pal-7 reached 0.6 μmol/L at 2 hours and elimination was linear between 2 hours and 16 hours. P1pal-10S (10 mg/kg) gave similar peak plasma level of 1.0 μmol/L as P1pal-7 (10 mg/kg) at 1 hour.
Lastly, the peak plasma level of P1pal-7 (10 mg/kg) was measured before and 1 hour after once-daily subcutaneous injection over 6 days to determine whether the peak plasma levels were consistent on daily administration.

PAR1 [4] = target: T1, PAR1; assay: Migration of primary patient lung tumor cells; format: cell-based; parameters: endogenous in cells; host or cells: A549, HOP62, H1299, H522, H226, HOP92 lung carcinoma lines
Procedure: FIG. 12 illustrates that PAR1 is a promigratory factor in lung cancer cells. (A-F): Inhibition of lung cancer migration in adenocarcinomas A549, HOP62, H1299 and H522, H226 squamous, and HOP92 large cell using PAR1 pepducins. Pepducins at […] (P1pal-7, P1pal-10S, P1pal-i1-11, or negative control P1pal-19EE) were added to the lower well. (G): Cell from primary lung tumors or nonmalignant control were pretreated with PAR1 pepducins and migration was determined (*P<0.05, **P<0.01).
Further experiments were carried out to determine whether migration of the primary carcinoma cell lines isolated from lung tumors could be inhibited by PAR1 pepducins (FIG. 12G). […] Likewise, the RWJ-56110 small-molecule antagonist of PAR1 (Andrade-Gordon, et al., Proc. Natl Acad Sci USA, 96 (1999), pp. 12257-12262) suppressed up to 55% of the migration of primary lung tumor cells toward NIH-3T3 conditioned media. The PAR1 antagonist pepducin P1pal-7 and P1pal-i1-11 had no effect on the low-expressing PAR1 cell line derived from benign lung tissue, which migrated poorly (FIG. 12G).

VEGF-A production = assay: Thrombin-dependent VEGF-A production in A549 cells (ELISA); format: cell-based, human; details: A549, 18 hours thrombin treatment
Procedure: as §1
Because the i3-based P1pal-7 pepducin had similar efficacy as Avastin in suppressing lung tumor growth of A549 xenografts, VEGF-A production was measured in the A549 tumor cells after 18 hours thrombin treatment. […] Unlike in ovarian cancer, no increase was found in PAR1-mediated IL-8 production in A549 cells, consistent with the observed lack of efficacy of CXCR1/2 pepducins in the A549 xenograft models. These xenograft data provide support for the role of a novel PAR1-ERK1/2-VEGF paracrine pathway that is an effective therapeutic target in the A549 adenocarcinoma lung cancer model.

Compound | Block of PRSFLLRN-induced phospho-ERK signal (PAR1 [1]; 0.1 μM pepducin, 10 μM PRSFLLRN, 5 min, A549) | Effect on thrombin-induced ERK1/2 phosphorylation (PAR1 [1]; A549 cells, pepducin 0.1-3 μM) | Inhibition of tumor progression/growth (final tumor volume vs vehicle) (A549 xenografts) [%] | Sensitivity of A549 cells (cytotoxicity) [2] | Duration of peak plasma level ([3]; 10 mg/kg s.c.) [h] | Cmax ([3]; CF-1, mouse, plasma, sc, 3 mg/kg s.c.) [nM] | level at time molar at 6 h ([3]; CF-1, mouse, plasma, sc, 10 mg/kg s.c., read-out: Plasma level at the 6-hour time point) [nM] | level at time molar at 16 h ([3]; CF-1, mouse, plasma, sc, 10 mg/kg s.c., read-out: Residual plasma level at the 16-hour time point) [nM] | Accumulation in plasma after daily dosing ([3]; daily subcutaneous dosing, mouse) | Cmax ([3]; mouse, plasma, sc, 10 mg/kg s.c., CF-1 mice) [nM] | Effect on migration of low-expressing PAR1 cell line derived from benign lung tissue (PAR1 [4]) | Effect on thrombin-dependent VEGF-A production (VEGF-A production) | Inhibition of migration of primary lung tumor cells (PAR1 [4]; primary lung tumors)
CCCCCCCCCCCCCCCC(=O)N[C@@H](CCCCN)C(=O)N[C@@H](CCCCN)C(=O)N[C@@H](CO)C(=O)N[C@@H](CCCNC(=N)N)C(=O)N[C@@H](C)C(=O)N[C@@H](CC(C)C)C(=O)N[C@@H](Cc1ccccc1)C(N)=O [P1pal-7] (Palmitoyl-KKSRALF-NH2) | completely block | complete inhibition | 75 | most sensitive | 4 | 600 | 200 | 10 | does not accumulate in plasma | 1100 | no effect | completely blocked | –
NCC[C@H](NC(=O)[C@H](Cc1ccc(F)c(F)c1)NC(=O)Nc1ccc2c(CN3CCCC3)cn(Cc3c(Cl)cccc3Cl)c2c1)C(=O)NCc1ccccc1 [RWJ-56110, reference compound] | – | – | – | – | – | – | – | – | – | – | – | – | up to 55%
